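Cells were grown in 96-well plates and exposed to each compound for 48 hours at five concentrations; endpoints were interpolated linearly between bracketing concentrations, or set to the highest concentration if not reached. Abbreviation: GI50, concentration required for 50% inhibition of growth. TGI denotes the concentration required for complete inhibition of growth.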
Key:
Assay in all cases: growth of human tumour cells (NCI), 48 h
NCI-H23 lung = tested on: NCI-H23 lung
NCI-H460 lung = tested on: NCI-H460 lung
NCI-H522 lung = tested on: NCI-H522 lung
NCI/ADR-RES ovarian = tested on: NCI/ADR-RES ovarian
OVCAR-3 ovarian = tested on: OVCAR-3 ovarian
OVCAR-4 ovarian = tested on: OVCAR-4 ovarian
OVCAR-5 ovarian = tested on: OVCAR-5 ovarian
OVCAR-8 ovarian = tested on: OVCAR-8 ovarian
PC-3 prostate = tested on: PC-3 prostate
RPMI-8226 leukemia = tested on: RPMI-8226 leukemia
RXF 393 renal = tested on: RXF 393 renal
SF-268 CNS = tested on: SF-268 CNS
SF-295 CNS = tested on: SF-295 CNS
SF-539 CNS = tested on: SF-539 CNS
SK-MEL-2 melanoma = tested on: SK-MEL-2 melanoma
SK-MEL-28 melanoma = tested on: SK-MEL-28 melanoma
SK-MEL-5 melanoma = tested on: SK-MEL-5 melanoma
SK-OV-3 ovarian = tested on: SK-OV-3 ovarian
SN12C renal = tested on: SN12C renal
SNB-19 CNS = tested on: SNB-19 CNS
SNB-75 CNS = tested on: SNB-75 CNS
SR leukemia = tested on: SR leukemia
SW-620 colon = tested on: SW-620 colon
T-47D breast = tested on: T-47D breast
TK-10 renal = tested on: TK-10 renal
U251 CNS = tested on: U251 CNS
UACC-257 melanoma = tested on: UACC-257 melanoma
UACC-62 melanoma = tested on: UACC-62 melanoma
UO-31 renal = tested on: UO-31 renal

CCOC(=O)/C(C#N)=C1\SS/C(=C(/C#N)C(=O)OCC)S1
GI50 (NCI-H23 lung): 23.5 µM | TGI (NCI-H23 lung): 61.2 µM | GI50 (NCI-H460 lung): 32 µM | TGI (NCI-H460 lung): > 100 µM | GI50 (NCI-H522 lung): 2.47 µM | TGI (NCI-H522 lung): 7.59 µM | GI50 (NCI/ADR-RES ovarian): 25.8 µM | TGI (NCI/ADR-RES ovarian): 65.3 µM | GI50 (OVCAR-3 ovarian): 14.5 µM | TGI (OVCAR-3 ovarian): 28.8 µM | GI50 (OVCAR-4 ovarian): 15.1 µM | TGI (OVCAR-4 ovarian): 29.8 µM | GI50 (OVCAR-5 ovarian): 22.4 µM | TGI (OVCAR-5 ovarian): 42.8 µM | GI50 (OVCAR-8 ovarian): 20.3 µM | TGI (OVCAR-8 ovarian): 41.1 µM | GI50 (PC-3 prostate): 19.7 µM | TGI (PC-3 prostate): 40.7 µM | GI50 (RPMI-8226 leukemia): 19.9 µM | TGI (RPMI-8226 leukemia): 73.5 µM | GI50 (RXF 393 renal): 13.3 µM | TGI (RXF 393 renal): 26.4 µM | GI50 (SF-268 CNS): 20.5 µM | TGI (SF-268 CNS): 41 µM | GI50 (SF-295 CNS): > 100 µM | TGI (SF-295 CNS): > 100 µM | GI50 (SF-539 CNS): 22.2 µM | TGI (SF-539 CNS): 42.8 µM | GI50 (SK-MEL-2 melanoma): 18.7 µM | TGI (SK-MEL-2 melanoma): 40.2 µM | GI50 (SK-MEL-28 melanoma): 18.9 µM | TGI (SK-MEL-28 melanoma): 34.1 µM | GI50 (SK-MEL-5 melanoma): 32 µM | TGI (SK-MEL-5 melanoma): > 100 µM | GI50 (SK-OV-3 ovarian): > 100 µM | TGI (SK-OV-3 ovarian): > 100 µM | GI50 (SN12C renal): 19.9 µM | TGI (SN12C renal): 43.3 µM | GI50 (SNB-19 CNS): 35.8 µM | TGI (SNB-19 CNS): > 100 µM | GI50 (SNB-75 CNS): 22.4 µM | TGI (SNB-75 CNS): 57.5 µM | GI50 (SR leukemia): 3.59 µM | TGI (SR leukemia): > 100 µM | GI50 (SW-620 colon): 5.4 µM | TGI (SW-620 colon): 32.7 µM | GI50 (T-47D breast): 17.9 µM | TGI (T-47D breast): 48.2 µM | GI50 (TK-10 renal): 6.81 µM | TGI (TK-10 renal): 20.3 µM | GI50 (U251 CNS): 19 µM | TGI (U251 CNS): 38 µM | GI50 (UACC-257 melanoma): 18.3 µM | TGI (UACC-257 melanoma): 34.8 µM | GI50 (UACC-62 melanoma): 15.8 µM | TGI (UACC-62 melanoma): 32.6 µM | GI50 (UO-31 renal): 13.2 µM | TGI (UO-31 renal): 26.1 µM

Reference: PubChem BioAssay (NCI)
